The target in the test is T1, Nuclear receptor ROR-gamma (Homo sapiens, UniProt P51449).
T1 sequence (P51449 whole entry): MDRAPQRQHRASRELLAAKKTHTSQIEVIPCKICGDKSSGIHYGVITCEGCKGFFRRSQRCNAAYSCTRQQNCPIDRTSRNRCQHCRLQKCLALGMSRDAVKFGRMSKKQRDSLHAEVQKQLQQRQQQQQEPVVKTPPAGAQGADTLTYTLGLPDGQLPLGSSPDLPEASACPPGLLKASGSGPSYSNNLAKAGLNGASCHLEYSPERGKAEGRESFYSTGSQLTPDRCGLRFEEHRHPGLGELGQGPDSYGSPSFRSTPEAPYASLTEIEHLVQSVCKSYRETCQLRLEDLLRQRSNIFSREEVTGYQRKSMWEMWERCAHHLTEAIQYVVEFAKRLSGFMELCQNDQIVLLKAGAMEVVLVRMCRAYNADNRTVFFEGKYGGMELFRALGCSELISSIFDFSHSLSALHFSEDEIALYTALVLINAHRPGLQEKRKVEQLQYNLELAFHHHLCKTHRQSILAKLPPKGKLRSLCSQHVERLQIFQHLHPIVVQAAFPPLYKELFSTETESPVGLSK
As to the kind of experiment: Binding Assay: Compounds of the present invention were tested for ability to bind to RORγ in a cell-free competition assay with commercially available radio-ligand (RL), 25-hydroxy [26,27-3H]— cholesterol (PerkinElmer, Cat. # NET674250UC), for a ligand binding site on a recombinant RORγ Ligand Binding Domain (LBD) protein expressed as a 6×His-Glutathione-S-Transferase (GST) fusion (“6×His” disclosed as SEQ ID NO: 2). The assay was performed in 96-well SPA plates (PerkinElmer, Cat. #1450-401) in 50 mM HEPES buffer, pH 7.4, containing 150 mM NaCl, 5 mM MgCl2, 10% (v/v) glycerol, 2 mM CHAPS, 0.5 mM β-octylglucopyranoside and 5 mM DTT. Tested compounds were dissolved in DMSO, and semi-log (3.162×) serial dilutions of the compounds were prepared in the same solvent. Two μL of the DMSO solutions were mixed with 28 μL of 8.6 nM 25-hydroxy [26,27-3H]— cholesterol and 50 μL of 24 nM RORγ LBD. The plate was shaken at 700 rpm for 20 min and incubated for 10 min at rt, after which 40 μL of poly-Lys YSi SPA beads (PerkinElmer, Cat. # RPNQ0010) were added to achieve 50 μg of the beads per well. The plate was incubated on an orbital shaker for 20 min and then for 10 min without agitation at rt. SPA signal for tritium beta radiation was registered on PerkinElmer Microbeta plate reader. […].

Each structure is given as a SMILES string.

As a reminder, the Ki is the dissociation constant of the complex between target and ligand, obtained from inhibition or displacement. As to `CC(C)[C@H]1c2nc(NS(=O)(=O)c3cccc(C(F)(F)F)c3)sc2CN1Cc1ccc(Cl)cc1`, the Ki was more than 1 µM.
